The conditions of data set [1]: neutral pH; cited from earlier work.
Data set [2] concerns the target T1, Lp-PLA2 (Homo sapiens, UniProt Q13093).
T1 construct: Individual serum No. 16, individual serum No. 78; from tissue; host or cells: serum and plasma (individual sera, pooled sera, heparin and citrated pooled plasma)
T1 sequence (Q13093 22-441): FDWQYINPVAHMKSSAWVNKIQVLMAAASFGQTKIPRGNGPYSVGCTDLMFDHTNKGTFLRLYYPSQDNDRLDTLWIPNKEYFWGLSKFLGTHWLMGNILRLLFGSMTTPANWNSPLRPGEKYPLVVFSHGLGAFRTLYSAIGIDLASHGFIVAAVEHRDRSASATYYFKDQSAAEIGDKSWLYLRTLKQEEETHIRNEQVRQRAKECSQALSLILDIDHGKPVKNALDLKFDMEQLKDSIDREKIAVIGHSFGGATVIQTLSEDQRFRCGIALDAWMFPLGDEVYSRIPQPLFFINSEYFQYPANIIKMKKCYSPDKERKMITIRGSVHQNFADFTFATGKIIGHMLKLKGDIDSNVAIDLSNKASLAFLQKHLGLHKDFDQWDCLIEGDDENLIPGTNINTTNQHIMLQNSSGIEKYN
Put plainly: Effects of coexisting substances, Lp-PLA2 FS. The data set is classed as biochemical. Particulars: for Lp-PLA2 activity value / ΔmAbs/min: coexisting substance added 1:9 to pooled serum J042; for measurement value as percentage of sample with added water (100%): pooled serum J042 plus coexisting substance vs J042 + water. An excerpt: (§1) The reagent compositions were the same as in Example 17.
(§2) The absorbance change values per minute (ΔmAbs/min) and activity values (nmol/min/mL and U/L) with each kind of reagent are shown in Tables 43 to 45. Given 100% as the measurement value of the sample with the added water, the measurement values for the other samples are shown as percentages.

The target of data set [3] is T1, Lp-PLA2. Put plainly: Effects of coexisting substances, PLAC Test. The data set is classed as biochemical. The note with it: for Lp-PLA2 activity value / ΔmAbs/min: coexisting substance added 1:9 to pooled serum J042; for measurement value as percentage of sample with added water (100%): pooled serum J042 plus coexisting substance vs J042 + water.
Source text: as §1, §2

The target in data set [4] is T1, Lp-PLA2. Kind of data set: Effects of coexisting substances, reagents of invention. The data set is classed as biochemical. The note with it: for measurement value as percentage of sample with added water: J042 + water = 100%, concentrations as printed in the sample names; for Lp-PLA2 activity value / absorbance change per minute: pooled serum J042 mixed 9:1 with: Bil-C 20 mg/dL, Bil-F 20 mg/dL, hemolytic Hb 500 mg/dL, chyle 1400 FTU, Intralipos 1%, ascorbic acid 50 mg/dL.
Source text: as §1, §2

A short description of data set [5]: Specificity of recombinant lyso-PAF-PLD: PLD activity against lyso-PAF. The data set is classed as biochemical. The note with it: 0 to 0.5 mM lyso-PAF (C16); […] enzyme in R2. The procedure:
(§3) To investigate the specificity of the recombinant lyso-PAF-PLD purified in Reference Example 3, activity against PAF(C16) and lyso-PAF(C16) was studied. The reagent compositions are as follows.
(§4) 5 μL samples containing PAF(C16) or lyso-PAF(C16) at concentrations of 0, 0.1, 0.2, 0.3, 0.4 or 0.5 mM were each incubated for 5 minutes at 37° C. with 15 μL of the R1 reagent (measuring points 1 to 15), after which 50 μL of the R2 reagent was added and reacted for 5 minutes (measuring points 16 to 31).

A short description of data set [6]: Specificity of recombinant lyso-PAF-PLD: PLD activity against PAF. It is filed as biochemical. Particulars: 0 to 0.5 mM PAF (C16); […] enzyme in R2. The procedure: as §3, §4
Data set [7] can be described thus: Thermal stability test of lyso-PAF-PLD (residual activity). The note with it: incubated 60 minutes in 20 mM Tris-HCl (pH 7.5). The data set is classed as physicochemical. How it is done: The purified lyso-PAF-PLD was incubated for 60 minutes at different temperatures in a 20 mM Tris-HCl (pH 7.5) solution, and residual activity was investigated with the following reaction solution. C18(Plasm) LPC (Product No. 852465P, Avanti Polar Lipids, Inc.) was used as the substrate.
50 μL of the reaction solution was pre-incubated for 5 minutes at 37° C., 5 μL of the enzyme solution was added, and an enzyme reaction was performed for 1 minute at […]. 200 μL of the color developing solution was then added and reacted for 10 minutes at 37° C., after which absorbance was measured at 550 nm. The activity value was calculated according to the following formula.

The nature of data set [8]: PLD activity (kcat/Km) of lyso-PAF-PLD and site-specific mutants against lyso-PAF. The data set is classed as biochemical. Particulars: substrate lyso-PAF 0 to 5 mM, pH 7.5, 37° C. How it is done:
As a result, the pre-mutation PLD activity was 1385 (s^−1 mM^−1), but the mutant having G substituted for the M in the 45th position of SEQ ID NO: 9 (called M45G) and the similarly-named mutants M45A, M45L and M45D had PLD activities of 3059, 11411, 3284 and 4557 (s^−1mM^−1), respectively.
As a result, the PLD activity was 1385 (s^−1mM^−1) before the mutation, but the mutant having G substituted for F in the 257th position of […] (called F257G) and the similarly-named mutants F257E, F257R, F257K and F257W had PLD activities 1200, 1000, 1080, 1020 and 1320, respectively.
The PLD activity of the lyso-PAF-PLD mutants obtained by site-specific mutations was measured as follows. 1.211 g of Tris, 14.7 mg of calcium chloride dihydrate (Wako Pure Chemical Industries, Ltd.), 20 mL of lyso-PAF solution and 2 mL of 1% TODB solution were dissolved in 60 mL of purified water, the pH was adjusted to 7.5 (25° C.) with 1 N HCl, 4 mL of 100 U/mL choline oxidase, 4 mL of 100 U/mL peroxidase solution and 2 mL of 1% 4-AA solution were added and dissolved, and the total was brought to 100 mL with purified water to obtain a PLD activity measurement reagent for lyso-PAF (reaction reagent mixture). The lyso-PAF solution was adjusted so that the lyso-PAF concentration in the reaction reagent mixture was 0 to 5 mM. 3 mL of the reaction reagent mixture was pre-heated for 5 minutes at 37° C., and mixed with 50 μL of a solution of the lyso-PAF-PLD mutant with the introduced site-specific mutation diluted appropriately with 10 mM Tris-HCl (pH 7.5) to initiate a reaction, and the change in absorbance at 546 nm was measured for 1 minute between 8 and 9 minutes after initiation of the reaction. The activity value (μmole/min) was calculated given 36 (cm^2/μmole) as the millimolar extinction coefficient of the quinoneimine dye at 546 nm. The protein content (mg/mL) was calculated by the Bradford method using bovine serum albumin as the standard. Km and kcat were calculated by the Michaelis-Menten formula in accordance with the methods described in the aforementioned Theory and Practice on Enzymes and other Proteins [Tanpakushitsu/Kouso no kiso jikkenhou] and in Voet's Basic Biochemistry (Fourth Ed.) and the like. For purposes of calculation, the molecular weight of the enzyme was given as 33583.

Residue numbers refer to the chain shown, from its start. In names and notes the source's numbering stands.

The text below walks through data of US10900063B2, “Measurement of Lp-PLA2 activity” (ASAHI KASEI PHARMA CORPORATION, priority 2016, dated 2021).

As usually defined, the Km is the concentration of substrate that gives half-maximal velocity. Usually kcat stands for the maximal rate divided by the concentration of active sites.

Regarding `CCCCCCCCCCCCCC(=O)OCC(COP(=O)([O-])OCC[N+](C)(C)C)OC(=O)CCC(=O)Oc1ccc([N+](=O)[O-])cc1` (stereo not drawn) [1-myristoyl-2-(4-nitrophenylsuccinyl)phosphatidylcholine], the water solubility result in data set [1] is recorded as “poor water solubility at neutral pH values”.
Turning to `C=CC1=C(C)/C(=C/c2[nH]c(Cc3[nH]c(/C=C4\NC(=O)C(C)=C4C=C)c(C)c3CCC(=O)O)c(CCC(=O)O)c2C)NC1=O` [Bil-F], in data set [2], the Lp-PLA2 activity value worked out at 351.0 U/L, the ΔmAbs/min is recorded as 29.4 ΔmAbs/min and the “measurement value as percentage of sample with added water (100%)” value (“measurement value as percentage … (100%)” below) stood at 102%. Besides, in data set [3], the Lp-PLA2 activity value is given as 145.5 nmol/min/mL, the ΔmAbs/min is 188.4 ΔmAbs/min and the “measurement value as percentage … (100%)” value worked out at 105%. In data set [4], the “measurement value as percentage of sample with added water” value was 101%, the Lp-PLA2 activity value was 31.3 nmol/min/mL and the “absorbance change per minute” value is 22.1 ΔmAbs/min.
`O=C1O[C@H]([C@@H](O)CO)C(O)=C1O` [ascorbic acid, L(+)-Ascorbic acid]: in data set [2], the Lp-PLA2 activity value was found to be 343.5 U/L, the ΔmAbs/min is reported as 28.8 ΔmAbs/min and the “measurement value as percentage … (100%)” value amounted to 100%. Besides, in data set [3], the Lp-PLA2 activity value was determined as 138.1 nmol/min/mL, the ΔmAbs/min was 181.0 ΔmAbs/min and the “measurement value as percentage … (100%)” value worked out at 99%. In addition, in data set [4], the “measurement value as percentage of sample with added water” value turned out to be 96%, the Lp-PLA2 activity value amounted to 29.6 nmol/min/mL and the “absorbance change per minute” value is recorded as 20.9 ΔmAbs/min.

B1: lyso-PAF-PLD: recombinant enzyme from Thermocrispum sp. NITE BP-01628, SEQ ID NO: 9, PLD activity against lyso-PAF but not PAF (protein)
chain: MTTRTTDNPWLDARVLNMAHAGGENEAPANTLYAFKRAVKLGANMLELDVQSTKDDQLVVIHNATVDQTTDGTGKVRDLTFEQVHELDAAYNFIPGRHAVPGEPPESYPLRGVRTGEKKPPPGYQPSDFAIPKLADVLEAFPRTPINIEIKGTSDADIPSFLHNAKLLARLLKKTGRTDFIVTSFNDLAVAKFHLLAPDIPIAPGMAGLAAYFLLGVKPMHGTVALQIPVRYQGLEIATPEFIRRAHADGYAVHVWFSGTAPDDEATYNRIIDSCADGLMPAYPALLERILDERGIERPGRPGVDPCG
With B1, the “PLD activity against lyso-PAF” value in data set [5] was “exhibits PLD activity only against lyso-PAF”. Besides, in data set [6], the “PLD activity against PAF” value was “not against PAF”. In data set [7], the “thermal stability (residual activity)” value is “not inactivated by storage at 20 to 60 °C”.

B2: M45D: lyso-PAF-PLD mutant, D substituted for M in the 45th position of SEQ ID NO: 9 (protein)
chain: B1 chain with M45D
On to B2, for which, in data set [8], the Michaelis-Menten constant (Km) stood at 34 µM and the catalytic constant (kcat) was 157 s⁻¹.

B3: M45A: lyso-PAF-PLD mutant, A substituted for M in the 45th position of SEQ ID NO: 9 (protein)
chain: B1 chain with M45A
With B3, in data set [8], the Km was found to be 12 µM and the catalytic constant (kcat) stood at 136 s⁻¹.

B4: M45L: lyso-PAF-PLD mutant, L substituted for M in the 45th position of SEQ ID NO: 9 (protein)
chain: B1 chain with M45L
Consider B4, for which, in data set [8], the Km is 23 µM and the catalytic constant (kcat) came out at 147 s⁻¹.

B5: M45G: lyso-PAF-PLD mutant, G substituted for M in the 45th position of SEQ ID NO: 9 (protein)
chain: B1 chain with M45G
For B5, in data set [8], the Michaelis-Menten constant (Km) is 27 µM and the turnover number (kcat) worked out at 82 s⁻¹.
